These are literature values, as cited in patent EP0547334A1, “Combination of calcium antagonists with cholinesterase inhibitors for the treatment of senile demention” (priority 1991, dated 1993).

In this data set the test system is Ratten. The settings on record: Metrifonat 1 mg/kg alone, oral, rats; literature statement (Schmidt, de Jonge 1991).

On to `COP(=O)(OC)C(O)C(Cl)(Cl)Cl` (stereo not shown) [Metrifonat], for which the Wirkung entry is listed as “keine Wirkung”.
